US11786584B2, “Peptides and combination of peptides for use in immunotherapy against prostate cancer and other cancers” (Immatics Biotechnologies GmbH, priority 2015, dated 2023)

system: HLA-A*24; assay: MHC binding assay by UV-ligand exchange and beta2m ELISA; parameters: species or system human; conditions: peptide exchange yield
From the text: (§1) Candidate peptides for T cell based therapies according to the present invention were further tested for their MHC binding capacity (affinity). The individual peptide-MHC complexes were produced by UV-ligand exchange, where a UV-sensitive peptide is cleaved upon UV-irradiation, and exchanged with the peptide of interest as analyzed. Only peptide candidates that can effectively bind and stabilize the peptide-receptive MHC molecules prevent dissociation of the MHC complexes. To determine the yield of the exchange reaction, an ELISA was performed based on the detection of the light chain (β2m) of stabilized MHC complexes. The assay was performed as generally described in Rodenko et al. (Rodenko et al., 2006).
(§2) 96 well MAXISorp plates (NUNC) were coated over night with 2 ug/ml streptavidin in PBS at room temperature, washed 4× and blocked for 1 h at 37° C. in 2% BSA containing blocking buffer. Refolded HLA-A*02:01/MLA-001 monomers served as standards, covering the range of 15-500 ng/ml. Peptide-MHC monomers of the UV-exchange reaction were diluted 100 fold in blocking buffer. Samples were incubated for 1 h at 37° C., washed four times, incubated with 2 ug/ml HRP conjugated anti-β2m for 1 h at 37° C., washed again and detected with TMB solution that is stopped with […]. Absorption was measured at 450 nm. Candidate peptides that show a high exchange yield (preferably higher than 50%, most preferred higher than 75%) are generally preferred for a generation and production of antibodies or fragments thereof, and/or T cell receptors or fragments thereof, as they show sufficient avidity to the MHC molecules and prevent dissociation of the MHC complexes.

Peptide exchange	Substance
+++ (>50 = +++)	24 (SYNDALLTF; listed as Homo sapiens) [compound 24]
+++ (>50 = +++)	25 (IYEPYLAMF; listed as Homo sapiens) [compound 25]
+++ (>50 = +++)	26 (RYADDTFTPAF; listed as Homo sapiens) [compound 26]
++++ (>75% = ++++)	27 (GYLQGLVSF; listed as Homo sapiens) [compound 27]
++++ (>75% = ++++)	28 (YYAKEIHKF; listed as Homo sapiens) [compound 28]
+++ (>50 = +++)	29 (RYGSPINTF; listed as Homo sapiens) [compound 29]
+++ (>50 = +++)	30 (SYSPAHARL; listed as Homo sapiens) [compound 30]
+++ (>50 = +++)	31 (AYTSPPSFF; listed as Homo sapiens) [compound 31]
++++ (>75% = ++++)	32 (PYQLNASLFTF; listed as Homo sapiens) [compound 32]
+++ (>50 = +++)	33 (QYGKDFLTL; listed as Homo sapiens) [compound 33]
+++ (>50 = +++)	34 (AFSPDSHYLLF; listed as Homo sapiens) [compound 34]
++ (>20% = ++)	35 (IYTRVTYYL; listed as Homo sapiens) [compound 35]
+++ (>50 = +++)	36 (RYMWINQEL; listed as Homo sapiens) [compound 36]
+++ (>50 = +++)	41 (RYLQKIEEF; listed as Homo sapiens) [compound 41]
+++ (>50 = +++)	42 (TYIGQGYII; listed as Homo sapiens) [compound 42]
+++ (>50 = +++)	43 (AYIKNGQLF; listed as Homo sapiens) [compound 43]
+++ (>50 = +++)	44 (VYNTVSEGTHF; listed as Homo sapiens) [compound 44]
++ (>20% = ++)	45 (RYFKTPRKF; listed as Homo sapiens) [compound 45]
++++ (>75% = ++++)	47 (SYTPVLNQF; listed as Homo sapiens) [compound 47]
+++ (>50 = +++)	48 (AWAPKPYHKF; listed as Homo sapiens) [compound 48]
+++ (>50 = +++)	54 (AYSEKVTEF; listed as Homo sapiens) [compound 54]
++++ (>75% = ++++)	55 (LYFEKGEYF; listed as Homo sapiens) [compound 55]
++ (>20% = ++)	56 (LFHPEDTGQVF; listed as Homo sapiens) [compound 56]
++ (>20% = ++)	58 (GYIDKVRQL; listed as Homo sapiens) [compound 58]
+++ (>50 = +++)	59 (IYPDVTYAF; listed as Homo sapiens) [compound 59]

system: CD8+ T cells; assay: In vitro T-cell priming assay with aAPCs loaded with peptide/MHC and anti-CD28, multimer readout; format: cell-based, human; conditions: in vitro immunogenicity, Table 15A; positive donors
From the text: In order to obtain information regarding the immunogenicity of the TUMAPs of the present invention, the inventors performed investigations using an in vitro T-cell priming assay based on repeated stimulations of CD8+ T cells with artificial antigen presenting cells (aAPCs) loaded with peptide/MHC complexes and anti-CD28 antibody.
In order to perform in vitro stimulations by artificial antigen presenting cells loaded with peptide-MHC complex (pMHC) and anti-CD28 antibody, the inventors first isolated CD8+ T cells from fresh HLA-A*02 leukapheresis products via positive selection using CD8 microbeads (Miltenyi Biotec, Bergisch-Gladbach, Germany) of healthy donors obtained from the University clinics Mannheim, Germany, after informed consent.
PBMCs and isolated CD8+ lymphocytes were incubated in T-cell medium (TCM) until use consisting of RPMI-Glutamax (Invitrogen, Karlsruhe, Germany) supplemented with 10% heat inactivated human AB serum (PAN-Biotech, Aidenbach, Germany), 100 U/ml Penicillin/100 μg/ml Streptomycin (Cambrex, Cologne, Germany), 1 mM sodium pyruvate (CC Pro, Oberdorla, Germany), 20 μg/ml Gentamycin (Cambrex). 2.5 ng/ml IL7 (PromoCell, Heidelberg, Germany) and 10 U/ml IL-2 (Novartis Pharma, Nurnberg, Germany) were also added to the TCM at this step.
Generation of pMHC/anti-CD28 coated beads, T-cell stimulations and readout was performed in a highly defined in vitro system using four different pMHC molecules per stimulation condition and 8 different pMHC molecules per readout condition.
The purified co-stimulatory mouse IgG2a anti human CD28 Ab 9.3 (Jung et al., 1987) was chemically biotinylated using Sulfo-N-hydroxysuccinimidobiotin as recommended by the manufacturer (Perbio, Bonn, Germany). Beads used were 5.6 μm diameter streptavidin coated polystyrene particles (Bangs Laboratories, Illinois, USA).
800.000 beads/200 μl were coated in 96-well plates in the presence of 4×12.5 ng different biotin-pMHC, washed and 600 ng biotin anti-CD28 were added subsequently in a volume of 200 μl. Stimulations were initiated in 96-well plates by co-incubating […] CD8+ T cells with 2×10^5 washed coated beads in 200 μl TCM supplemented with 5 ng/ml IL-12 (PromoCell) for 3 days at 37° C. Half of the medium was then exchanged by fresh TCM supplemented with 80 U/ml IL-2 and incubating was continued for 4 days at 37° C. This stimulation cycle was performed for a total of three times. For the pMHC multimer readout using 8 different pMHC molecules per condition, a two-dimensional combinatorial coding approach was used as previously described (Andersen et al., 2012) with minor modifications encompassing coupling to 5 different fluorochromes. Finally, multimeric analyses were performed by staining the cells with Live/dead near IR dye (Invitrogen, Karlsruhe, Germany), CD8-FITC antibody clone SK1 (BD, Heidelberg, Germany) and fluorescent pMHC multimers. For analysis, a BD LSRII SORP cytometer equipped with appropriate lasers and filters was used. Peptide specific cells were calculated as percentage of total CD8+ cells. Evaluation of multimeric analysis was done using the FlowJo software (Tree Star, Oregon, USA). In vitro priming of specific multimer+ CD8+ lymphocytes was detected by comparing to negative control stimulations.

Substance	donors
17 (RLGIKPESV; listed as Homo sapiens) [compound 17]	++++ (>=70% = ++++)
29 (RYGSPINTF; listed as Homo sapiens) [compound 29]	+++ (50%-69% = +++)
34 (AFSPDSHYLLF; listed as Homo sapiens) [compound 34]	+++ (50%-69% = +++)
35 (IYTRVTYYL; listed as Homo sapiens) [compound 35]	++++ (>=70% = ++++)
42 (TYIGQGYII; listed as Homo sapiens) [compound 42]	++++ (>=70% = ++++)

same assay, conditions: in vitro immunogenicity, Table 15A; positive wells

Substance	wells
17 (RLGIKPESV; listed as Homo sapiens) [compound 17]	++ (20%-49% = ++)
29 (RYGSPINTF; listed as Homo sapiens) [compound 29]	+ (<20% = +)
34 (AFSPDSHYLLF; listed as Homo sapiens) [compound 34]	+ (<20% = +)
35 (IYTRVTYYL; listed as Homo sapiens) [compound 35]	++ (20%-49% = ++)
42 (TYIGQGYII; listed as Homo sapiens) [compound 42]	+ (<20% = +)

same assay, conditions: in vitro immunogenicity, Table 15B

Substance	Wells positive [%]
1 (VTAQIGIVAV; listed as Homo sapiens) [compound 1]	++++ (>=70% = ++++)
3 (HLLEDIAHV; listed as Homo sapiens) [compound 3]	++ (20%-49% = ++)
5 (KIFSRLIYI; listed as Homo sapiens) [compound 5]	+++ (50%-69%= +++)
6 (ALLESRVNL; listed as Homo sapiens) [compound 6]	+ (<20% = +)
24 (SYNDALLTF; listed as Homo sapiens) [compound 24]	+++ (50%-69%= +++)
27 (GYLQGLVSF; listed as Homo sapiens) [compound 27]	++ (20%-49% = ++)

target: HLA-A*02 (Homo sapiens, UniProt P04439, D140Y/D185E/D98H/E176V/E277Q/G131W/G231S/I119V/I121R/I166T/I218V/L300P/N151K/N90K/P208A/P217A/Q86G/Q94H/R138H/R169H); assay: MHC binding assay by UV-ligand exchange and beta2m ELISA; conditions: peptide exchange yield
From the text: as §1, §2

Peptide exchange	Substance
++++ (>75% = ++++)	1 (VTAQIGIVAV; listed as Homo sapiens) [compound 1]
++++ (>75% = ++++)	2 (SMLGEEIQL; listed as Homo sapiens) [compound 2]
++++ (>75% = ++++)	3 (HLLEDIAHV; listed as Homo sapiens) [compound 3]
++++ (>75% = ++++)	4 (ALLTFVWKL; listed as Homo sapiens) [compound 4]
+++ (>50 = +++)	5 (KIFSRLIYI; listed as Homo sapiens) [compound 5]
++++ (>75% = ++++)	6 (ALLESRVNL; listed as Homo sapiens) [compound 6]
++ (>20% = ++)	7 (TLLQVVGVVSV; listed as Homo sapiens) [compound 7]
+++ (>50 = +++)	9 (GMLNEAEGKAIKL; listed as Homo sapiens) [compound 9]
+++ (>50 = +++)	10 (TLWRGPVVV; listed as Homo sapiens) [compound 10]
++ (>20% = ++)	11 (YLEEECPAT; listed as Homo sapiens) [compound 11]
+++ (>50 = +++)	13 (AMAPNHAVV; listed as Homo sapiens) [compound 13]
++ (>20% = ++)	14 (KMDEASAQLL; listed as Homo sapiens) [compound 14]
+++ (>50 = +++)	15 (KMDEASAQLLA; listed as Homo sapiens) [compound 15]
+++ (>50 = +++)	16 (KMDEASAQL; listed as Homo sapiens) [compound 16]
+++ (>50 = +++)	20 (SLLSHQVLL; listed as Homo sapiens) [compound 20]
++ (>20% = ++)	21 (YLNDSLRHV; listed as Homo sapiens) [compound 21]
++++ (>75% = ++++)	22 (SLYDSIAFI; listed as Homo sapiens) [compound 22]
+++ (>50 = +++)	52 (ALGDLVQSV; listed as Homo sapiens) [compound 52]
+++ (>50 = +++)	53 (YLLKDKGEYTL; listed as Homo sapiens) [compound 53]
